Experimental data: PubChem BioAssay AID1259407 (Chemical Carcinogenesis Research Information System (CCRIS), 2018)
Activity calls are given as the source filed them. No rule for the calls is given here.

Test system: CCRIS mutagenicity, Ames/micronucleus/aberration tests
Assay: CCRIS mutagenicity studies
[1] = Test System: AMES SALMONELLA TYPHIMURIUM, Strain/Indicator: TA98, Metabolic Activation: NONE, Method: STANDARD PLATE

## CC(Cl)c1ccccc1 (stereo not drawn)
[1]
  mutagenic call: inactive; negative
Test System: AMES SALMONELLA TYPHIMURIUM, Strain/Indicator: TA100, Metabolic Activation: NONE, Method: STANDARD PLATE
  mutagenic call: inactive; negative

## [Cl][Ce]([Cl])[Cl]
Test System: E. COLI, Strain/Indicator: WP2 UVRA, Metabolic Activation: NONE, Method: SPOT TEST
  mutagenic call: inactive; negative

## O=C1OCCN1N=Cc1ccc([N+](=O)[O-])o1
End Point: In vivo micronucleus, Test System: Bone marrow polychromatic erythrocytes, Species: Rat, Strain/Sex: Sprague-Dawley/Female, Route: Oral
  mutagenic call: inactive; positive (p</=0.05 for mononuclei; p</=0.01 for binuclei for furazolidone alone;
Test System: AMES SALMONELLA TYPHIMURIUM, Strain/Indicator: TA98(1,8-DNP6), Metabolic Activation: NONE, Method: STANDARD PLATE
  mutagenic call: active; positive
Test System: AMES SALMONELLA TYPHIMURIUM, Strain/Indicator: TA98(1,8-DNP6), Metabolic Activation: RAT, LIVER, S-9, 3-METHYLCHOLANTHRENE, Method: STANDARD PLATE
  mutagenic call: active; positive
Test System: AMES SALMONELLA TYPHIMURIUM, Strain/Indicator: TA98(NR), Metabolic Activation: NONE, Method: STANDARD PLATE
  mutagenic call: active; positive
Test System: AMES SALMONELLA TYPHIMURIUM, Strain/Indicator: TA98(NR), Metabolic Activation: RAT, LIVER, S-9, 3-METHYLCHOLANTHRENE, Method: STANDARD PLATE
  mutagenic call: active; positive
Test System: AMES SALMONELLA TYPHIMURIUM, Strain/Indicator: TA98, Metabolic Activation: NONE
  mutagenic call: active; positive
[1]
  mutagenic call: active; positive
Test System: AMES SALMONELLA TYPHIMURIUM, Strain/Indicator: TA98, Metabolic Activation: RAT, LIVER, S-9, 3-METHYLCHOLANTHRENE, Method: STANDARD PLATE
  mutagenic call: active; positive
Test System: AMES SALMONELLA TYPHIMURIUM, Strain/Indicator: TA98, Metabolic Activation: S-9
  mutagenic call: active; positive
Test System: AMES SALMONELLA TYPHIMURIUM, Strain/Indicator: TA100, Metabolic Activation: NONE
  mutagenic call: active; positive
Test System: AMES SALMONELLA TYPHIMURIUM, Strain/Indicator: TA100, Metabolic Activation: S-9
  mutagenic call: active; positive
Test System: CHINESE HAMSTER OVARY, Strain/Indicator: CHO-AS52, Metabolic Activation: NONE
  mutagenic call: inactive; negative
Test System: CHINESE HAMSTER OVARY, Strain/Indicator: CHO-AS52, Metabolic Activation: RAT, LIVER, S-9, 3-METHYLCHOLANTHRENE
  mutagenic call: inactive; negative
Test System: CHINESE HAMSTER OVARY, Strain/Indicator: CHO-K1-BH4, Metabolic Activation: NONE
  mutagenic call: active; positive
Test System: CHINESE HAMSTER OVARY, Strain/Indicator: CHO-K1-BH4, Metabolic Activation: RAT, LIVER, S-9, 3-METHYLCHOLANTHRENE
  mutagenic call: active; positive
Test System: CHINESE HAMSTER OVARY, Strain/Indicator: CHO-UV5, Metabolic Activation: NONE
  mutagenic call: active; positive
Test System: CHINESE HAMSTER OVARY, Strain/Indicator: CHO-UV5, Metabolic Activation: RAT, LIVER, S-9, 3-METHYLCHOLANTHRENE
  mutagenic call: active; positive
Test System: E. COLI, Strain/Indicator: TC3960, Metabolic Activation: NONE, Method: PREINCUBATION
  mutagenic call: active; positive
Test System: E. COLI, Strain/Indicator: WP2, Metabolic Activation: NONE, Method: SPOT
  mutagenic call: active; positive
Test System: E. COLI, Strain/Indicator: WP2 UVRA, Metabolic Activation: NONE, Method: SPOT
  mutagenic call: active; positive
